Results from patent publication US4230711A (priority 1979, dated 1980).

Columns and labels:
Erysiphe polygoni = details: in vivo
Septoria apii = format: in vivo; details: @ 250 ppm; celery (Utah) plants; approximately 14 days; relative to untreated check plants
[1] = test system: Phytophthora infestans conidia; format: in vivo; details: @ 250 ppm; tomato (Bonny Best) seedlings sprayed, inoculated one day later; approximately 7 days; relative to untreated check plants
[2] = test system: Alternaria solani conidia; details: in vivo
fungi = details: cited from earlier work

SMILES	% Control, Bean Powdery Mildew (Erysiphe polygoni) [%]	% Control, Celery Late Blight (Septoria apii) [%]	% Control, Tomato Late Blight [1] [%]	% Control, Tomato Early Blight [2] [%]	fungicidal activity (fungi)
CC1(C)C(=O)N(SC(Cl)(Cl)Cl)C(=O)c2ccccc21 [Compound 1, N-(trichloromethylthio)-4,4-dimethyl homophthalimide]	96	50	95	33	–
O=C1c2ccccc2C(=O)N1SC(Cl)(Cl)Cl [N-(trichloromethylthio)phthalimide]	–	–	–	–	having fungicidal activity
CC1(C)C(=O)NC(=O)c2ccccc21 [Compound 3, 4,4-dimethyl homophthalimide]	0	0	0	0	–
